Tested on: C. albicans SC5314
Experiment: Surface adhesion of C. albicans with simultaneous LreLTA and Hsp70 inhibitor VER-155008, crystal violet staining
Assay type: cell-based, Candida albicans
Settings: SC5314 1×10^4 CFU/mL; LreLTA 30 μg/mL plus VER-155008 1, 10, 50 and 100 μM simultaneously; 24 hours; FIG. 4
Procedure: According to previous research, Hsp70 is known to play a role in controlling overall virulence factors and drug resistance in C. albicans, and thus, the inventors of the present disclosure conducted experiments by utilizing VER-155008, which is an Hsp70 inhibitor.
In order to determine the effect of VER-155008 on reducing C. albicans surface adhesion by LreLTA, C. albicans SC5314 strain was cultured in YPD medium and prepared at 1×10^4 CFU/mL, and LreLTA at a single concentration of 30 μg/mL and VER-155008 at concentrations of 1, 10, 50 and 100 μM were simultaneously treated. After culturing for 24 hours, the degree of adhesion maintenance to the surface was compared by 0.1% crystal violet staining.

N#Cc1ccc(COC[C@H]2O[C@@H](n3c(NCc4ccc(Cl)c(Cl)c4)nc4c(N)ncnc43)[C@H](O)[C@@H]2O)cc1 [VER-155008]
effect on the surface adhesion reducing efficacy of LreLTA: the efficacy of reducing the surface adhesion of LreLTA was decreased

From US20250295681A1, “CANDIDA ANTIFUNGAL COMPOSITION COMPRISING LIPOTEICHOIC ACID” (SEOUL NATIONAL UNIVERSITY R&DB FOUNDATION, priority 2022, published 2025)
